Residues, ends and D or L forms follow the SMILES beside them.
Tests used:
ComRSth WT = ComRSth WT (Streptococcus thermophilus, UniProt A0A1L1QK15); format: cell-based; settings: for EC50: read-out: EC50 of PcomS activity (maximum specific luciferase activity), synthetic 8-aa peptide added to S. thermophilus ΔcomS reporter strain (PcomS-luxAB), Hill fit, mean ± SD of at least three independent replicates, SD; for effect of XIP-5 substitution on activation (titration of synthetic XIPSth variants): compared with XIPSth WT (A5), PcomS-luxAB
Experimental: (§1) Luciferase assays were performed as previously described ([19]). Overnight precultures were diluted to a final OD600 of 0.05 and culture samples incubated in a sterile covered white microplate with a transparent bottom (Greiner). Growth and luciferase activity (expressed in relative light units [RLUs]) of the cultures were monitored after addition or in absence of synthetic XIP peptide at 10 min intervals during at least 8 h in a multiwell plate reader (Hidex Sense, Hidex). When peptides were titrated, 0, 0.78, 1.56, 3.12, 6.25, 12.5, 25, 50, 100, and 1000 nM were added to the medium.

ComRSve WT = experiment: PcomS-luxAB luciferase reporter assay, S. thermophilus strain with ComRSth replaced by ComRSve; format: cell-based, Streptococcus vestibularis; settings: reporter strain carrying ComRSve; for decrease of activation compared with wild-type XIPSve: synthetic peptide
Experimental: as §1

ComRSth [1] = biological target: T1, ComRSth (Streptococcus thermophilus, UniProt A0A1L1QK15); experiment: biochemical; settings: SD
Experimental: In the case of competition assays, a fixed concentration of ComR (250 nM) and FITC N-labeled XIP peptide (30 nM) were incubated with twofold serial dilutions of unlabeled XIP variant (initial concentration of 5 μM). Plots were fitted by using GraphPad Prisma software to calculate IC50 values (half-maximal inhibitory peptide concentration).

ComRSth [2] = biological target: T1, ComRSth; experiment: Single-molecule force spectroscopy (AFM); format: binding; settings: polyG-linked peptide grafted on AFM tip, ComRSth on gold-coated coverslip
Experimental: Gold-coated glass coverslips and cantilevers (OMCL-TR4, Olympus Ltd; nominal spring constant ∼0.02 N m^−1) were immersed overnight in an ethanol solution containing 1 mM of 10% 16- […]/90% 1-mercapto-1-undecanol (Sigma), rinsed with ethanol and dried with N2. Substrates and cantilevers were then immersed for 30 min into a solution containing 10 mg ml^−1 N-hydroxysuccinimide (NHS) and 25 mg ml^−1 1-ethyl-3-(3-dimethylaminopropyl)-carbodiimide (EDC) (Sigma), rinsed with Ultrapure water (ELGA LabWater), incubated with 0.1 mg ml^−1 ComR or polyG-XIPSth, polyG-XIP-A5M, or polyG-XIPSve peptides for 1 h, rinsed further with PBS buffer, and then immediately used without dewetting.
For experiments of single-molecule force spectroscopy, ComR-functionalized surfaces and functionalized cantilevers with polyG-peptides were prepared as described above. Measurements were performed at room temperature in PBS with a Force Robot 300 AFM (JPK Instruments). Multiple (32 × 32) force–distance curves were recorded on areas of 500 by 500 nm^2 with an applied force of 250 pN, a constant approach, and retraction speed of 1000 nm s^−1. […] The spring constants of the cantilevers were measured by the thermal noise method ([50]). Data were analyzed with the data processing software from JPK Instruments.

ComR-F171A = experiment: PcomS-luxAB luciferase reporter assay, ComR-F171A strain; format: cell-based, Streptococcus thermophilus; settings: substitution added to XIP-L1A; ComR-F171A mutant strain
Experimental: Luciferase assays were performed as previously described ([19]). Overnight precultures were diluted to a final OD600 of 0.05 and culture samples incubated in a sterile covered white microplate with a transparent bottom (Greiner). Growth and luciferase activity (expressed in relative light units [RLUs]) of the cultures were monitored after addition or in absence of synthetic XIP peptide at 10 min intervals during at least 8 h in a multiwell plate reader (Hidex Sense, Hidex). When peptides were titrated, 0, 0.78, 1.56, 3.12, 6.25, 12.5, 25, 50, 100, and 1000 nM were added to the medium. In order to calculate EC50 values (peptide concentration for a half maximum response), maximum luciferase activity values were fitted to Hill equation: L=Lmax×[XIP]^n/(EC50)^n+[XIP]^n where L is the luciferase activity, [XIP] is the XIP concentration, and n is the Hill coefficient. Curves were fitted with the GraphPad Prism software v.9.0.1 (GraphPad Software, Inc).

[3] = biological target: ComRSth-StreptagII protein (Streptococcus thermophilus ComR) (Streptococcus thermophilus)
[4] = biological target: FITC N-labeled XIP-A5M peptide (9 aa) (Streptococcus thermophilus); experiment: fluorescence polarisation; 30 nM FITC N-labeled 9-aa XIP peptide, threefold serial dilutions of purified ComR from 1 uM, 10 min at 30 °C, 96-well plates; EC50 by Hill fit
[5] = biological target: T2, ComRSth-StreptagII protein (Streptococcus thermophilus ComR) (Streptococcus thermophilus); experiment: FP; competition with FITC-XIP-A5M
T2 chain: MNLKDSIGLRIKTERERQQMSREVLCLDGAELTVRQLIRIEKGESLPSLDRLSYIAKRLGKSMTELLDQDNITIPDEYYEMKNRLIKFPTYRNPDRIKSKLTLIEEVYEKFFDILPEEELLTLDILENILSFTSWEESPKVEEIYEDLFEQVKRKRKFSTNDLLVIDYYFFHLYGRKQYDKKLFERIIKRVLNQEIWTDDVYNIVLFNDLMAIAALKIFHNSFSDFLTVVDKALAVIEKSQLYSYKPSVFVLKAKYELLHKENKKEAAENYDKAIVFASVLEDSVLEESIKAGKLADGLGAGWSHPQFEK

## CSCC[C@H](NC(=O)[C@H](Cc1ccccc1)NC(=O)[C@H](Cc1ccc(O)cc1)NC(=O)[C@@H]1CCCN1C(=O)[C@@H](N)C(C)C)C(=O)NCC(=O)N[C@@H](CS)C(=O)N[C@@H](CC(C)C)C(=O)O [XIP-L1V-A5M] (H-VPYFMGCL-OH)
ComRSth WT
  EC50: 0.00136 ± 0.00033 µM
ComRSth WT; synthetic peptide, ΔcomS reporter strain, PcomS as proxy
  EC50 compared with wild-type XIPSth: approximately fourfold lower

## LPYFIGCL [XIP-A5I]
ComRSth WT; ΔcomS reporter strain
  effect of XIP-5 substitution on activation (titration of synthetic XIPSth variants): improved transcriptional activation but at a lower level than A5M

## PFFMIYY [XIPSve-ΔV1, 7-aa XIPSve variant PFFMIYY]
ComRSve WT; synthetic 7-aa peptide
  activation of ComRSve (in words): completely abolished

## LPYFTGCL [XIP-A5T]
ComRSth WT; ΔcomS reporter strain
  effect of XIP-5 substitution on activation (titration of synthetic XIPSth variants): neutral

## CC(C)C[C@H](NC(=O)[C@H](CS)NC(=O)CNC(=O)[C@H](C)NC(=O)[C@H](Cc1ccccc1)NC(=O)[C@H](Cc1ccc(O)cc1)NC(=O)[C@@H]1CCCN1C(=O)[C@@H](N)CC(C)C)C(=O)O [XIPSth, reference compound] (H-LPYFAGCL-OH)
ComRSth [1]
  IC50: 0.254 ± 0.0497 µM
ComRSth WT
  EC50: 0.0044 ± 0.00112 µM

## APFFMIYY [XIPSve-V1A]
ComRSve WT
  decrease of activation compared with wild-type XIPSve: ~130 fold

## VPFFMIYY [XIPSve]
ComRSth [2]
  binding frequency / binding probability: ~2%
ComRSth [2]; PBS, room temperature, about 1000 curves per surface
  median binding (adhesion) force: 58 pN

## APYFMGCL [XIPSth-L1A-A5M]
ComR-F171A
  increased activation (fold change in EC50) with XIP-L1A as reference: 1.3 fold
ComRSth WT; substitution added to XIP-L1A, ComRSth WT reporter strain
  increased activation (fold change in EC50) with XIP-L1A (A1–A5) as reference: 10.4 fold

## PYFAGCL [XIPSth-ΔL1]
ComRSth WT; synthetic 7-aa peptide, ComRSth WT reporter strain
  decrease of activity (fold less active): ~90 fold

## VPFFAIYY [XIPSve-M5A]
ComRSve WT
  decrease of activation compared with wild-type XIPSve: ~40 fold

## XIP-L1A-A5M (synthetic octapeptide)
[3]
  P (comS)-luxAB luciferase reporter in S. thermophilus cells producing ComRSth WT; fold change in EC50 against the reference XIP-L1A (substitution A5M): 10.4 fold

## ComRSth-StreptagII protein (Streptococcus thermophilus ComR) (natural protein)
[4]
  fold lower EC50 than FITC-XIPSth: 2 fold

## LPYFAGCL [XIPSth (Streptococcus thermophilus XIP, synthetic octapeptide)]
[3]
  P (comS)-luxAB luciferase reporter in S. thermophilus cells producing ComRSth WT; fold change in EC50 against the reference XIP-L1A (substitution A1L): 2.7 fold
[5]
  IC50: 0.254 µM

## PYFAGCL [XIPSth-ΔL1 (7 aa)]
[3]
  P (comS)-luxAB luciferase reporter in S. thermophilus cells producing ComRSth WT; activity against XIPSth WT (fold less active): 90
